Where “and” joins values, the source holds several entries; their conditions need not be identical. Identical values can stand only once. Like-named read-outs stand apart in the source and are kept apart here.
Tests used:
Assay in all cases: Inside-out patch-clamp inhibition of CFTR current by Inh-172
Format in all cases: cell-based
W1145A-CFTR = molecular target: T1, W1145A-CFTR (Homo sapiens, UniProt P13569, W1145A)
T1 construct: expressed in transfected cells; host or cells: CHO cells, pcDNA plasmid
T1 sequence (P13569 whole entry W1145A): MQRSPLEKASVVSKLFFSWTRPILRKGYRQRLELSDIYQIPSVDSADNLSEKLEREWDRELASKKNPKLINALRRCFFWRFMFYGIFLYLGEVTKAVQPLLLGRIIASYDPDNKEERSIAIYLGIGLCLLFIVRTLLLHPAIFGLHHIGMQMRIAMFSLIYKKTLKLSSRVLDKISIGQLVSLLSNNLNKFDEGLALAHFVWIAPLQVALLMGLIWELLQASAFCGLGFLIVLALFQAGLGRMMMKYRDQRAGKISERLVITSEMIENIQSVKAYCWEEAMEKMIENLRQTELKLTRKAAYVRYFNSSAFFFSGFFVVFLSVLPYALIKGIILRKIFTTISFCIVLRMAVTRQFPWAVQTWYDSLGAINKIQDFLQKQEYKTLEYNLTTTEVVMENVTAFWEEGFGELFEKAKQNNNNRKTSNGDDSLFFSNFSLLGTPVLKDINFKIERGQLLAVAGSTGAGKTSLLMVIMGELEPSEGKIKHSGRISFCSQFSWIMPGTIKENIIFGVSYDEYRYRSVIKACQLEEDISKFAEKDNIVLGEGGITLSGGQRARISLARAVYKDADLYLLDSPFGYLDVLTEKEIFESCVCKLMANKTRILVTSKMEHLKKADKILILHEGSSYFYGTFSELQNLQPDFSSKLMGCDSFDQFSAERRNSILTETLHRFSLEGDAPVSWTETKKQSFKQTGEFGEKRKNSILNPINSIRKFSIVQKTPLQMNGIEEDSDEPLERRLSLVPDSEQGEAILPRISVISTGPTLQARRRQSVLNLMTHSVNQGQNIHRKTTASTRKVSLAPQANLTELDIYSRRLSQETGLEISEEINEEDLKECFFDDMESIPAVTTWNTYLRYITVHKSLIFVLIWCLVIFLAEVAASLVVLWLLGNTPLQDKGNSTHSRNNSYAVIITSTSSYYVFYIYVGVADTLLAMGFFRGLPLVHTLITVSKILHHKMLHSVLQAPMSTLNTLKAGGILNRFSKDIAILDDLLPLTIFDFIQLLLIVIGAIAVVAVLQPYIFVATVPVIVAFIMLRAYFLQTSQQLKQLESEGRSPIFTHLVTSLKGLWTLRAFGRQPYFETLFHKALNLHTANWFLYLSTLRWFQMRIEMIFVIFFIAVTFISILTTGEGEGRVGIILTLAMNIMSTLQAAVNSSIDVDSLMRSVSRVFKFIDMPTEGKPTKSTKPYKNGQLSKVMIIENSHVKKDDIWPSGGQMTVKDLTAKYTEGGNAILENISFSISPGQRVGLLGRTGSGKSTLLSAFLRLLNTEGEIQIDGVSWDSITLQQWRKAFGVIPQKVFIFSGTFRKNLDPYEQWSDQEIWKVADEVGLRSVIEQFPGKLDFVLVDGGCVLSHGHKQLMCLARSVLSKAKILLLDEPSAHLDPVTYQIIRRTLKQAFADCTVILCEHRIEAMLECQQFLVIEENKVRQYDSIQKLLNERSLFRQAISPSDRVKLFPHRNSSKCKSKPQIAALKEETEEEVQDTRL
Description: (§1) CHO cells were grown at 37 °C in Dulbecco’s modified Eagle’s medium supplemented with 10% (vol/vol) fetal bovine serum (Sigma-Aldrich, St. Louis, MO). pcDNA plasmids carrying the desired CFTR construct were transfected to CHO cells using PolyFect transfection reagent (Qiagen, Hilden, Germany) together with green fluorescence protein (GFP) cDNA (pEGFP-C3, Takara Bio, Shiga, Japan) that helps identify expression of CFTR. Cells were first incubated with the transfection reagents at 37 °C for 6-12 hours on sterile glass chips in 35-mm tissue culture dishes before transferred to 27 °C for incubation for 2–7 days. Primers for mutations were ordered from Integrated DNA Technologies (Coralville, IA) and were summarized in Supplementary Data. All CFTR mutants were prepared with QuikChange XL kit (Agilent, Santa Clara, CA) and sequenced at the DNA Core facility at University of Missouri-Columbia.
(§2) Patch-clamp pipettes were made from borosilicate capillary glass using a two-stage vertical puller (PP-81; Narishige, Amityville, NY). The pipette tips were fire polished with a homemade microforge to yield a pipette resistance of 2–5 MΩ when filled with a pipette solution containing (in mM): 140 NMDG-Cl (N-methyl-D-glucamine-chloride), 5 CaCl2, 2 MgCl2, and 10 HEPES, pH 7.4. For recordings, transfected cells on glass chips were transferred into a continuously perfused chamber on the stage of an inverted microscope (IX51; Olympus, Tokyo, Japan) with the perfusing solution containing (in mM): 150 NMDG-Cl, 2 MgCl2, 10 EGTA, 8 Tris, and 10 HEPES, pH 7.4. The membrane patch was excised to an inside-out configuration with a seal resistance >40 GΩ. CFTR currents were recorded with an amplifier (EPC9; HEKA, Holliston, MA), filtered through an eight-pole Bessel filter (LPF-8; Warner Instruments, Hamden, CT) at 100 Hz and digitized to a computer at a sampling rate of 500 Hz with Pulse software (version 8.53; HEKA). The membrane potential was held at −30 mV. Solution exchange was achieved by a fast solution change system (SF-77B; Warner Instruments). Inh-172 was obtained from the CFTR Chemical Compound Program supported by the Cystic Fibrosis Foundation. All experiments were performed at room temperature.
(§3) The steady state mean currents were measured in the Igor Pro software (version 8.0; WaveMetrics). The mean baseline currents were subtracted from the steady state mean currents before the data were used to determine the degrees of inhibition. The degrees of inhibition by CFTR inhibitor 172 were calculated based on the equation:1 %inhibition=1−IInh−172/I0X100% where I0 and Iinh−172 represent uninhibited and inhibited currents, respectively. The IC50 and Hill coefficients were obtained by fitting percent inhibition as a function of [Inh-172] with the Hill equation:2 %inhibition=base+(max−base)/1+xhalf/x^rate where max and base represent the […] percent inhibition by Inh-172, x represents the concentration of Inh-172, and the rate is the Hill coefficient. The estimated IC50 (xhalf) and Hill coefficients are listed in Table 1 as mean ± standard deviation. Each patch-clamp recording was made from a separate cell.

[1] = molecular target: T2, h-pTM8-h-CFTR (human CFTR, three TM8 amino acids replaced with pig's) (Homo sapiens, UniProt P13569, F931L/M929L/T925G); details: for inhibition at 1 µM: 1000 nM Inh-172; for inhibition at 5 µM: 5000 nM Inh-172; for inhibition at 10 µM: 10000 nM Inh-172
T2 construct: expressed in transfected cells; host or cells: CHO cells, pcDNA plasmid
T2 sequence (P13569 whole entry T925G/M929L/F931L): as the sequence (P13569 whole entry W1145A) above, with T925G, M929L, F931L, A1145W counted along it
Description: as §1, §2, §3

[2] = molecular target: T3, p-hTMD2-p-CFTR (pig CFTR with human CFTR's TMD2) (Sus scrofa, UniProt Q6PQZ2, A1172T/A789T/A900R/A913S/C878S/C883W/D1186N/D1223E/D816E/DEL1175-1175/F1181T/G899S/G926T/H1036Q/I1057V/I806L/K1013Q/K886G/K887N/K898H/L1018V/L1029M/L930M/L932F/M795V/N1178T/P890L/Q1176K/Q1198S/R1179K/R831K/R951H/S1010A/S1184Y/S783N/S889P/T1129R/T790A/T843A/V1006I/V1222T/V1228I/V798A/V838M/V854I/V870I/V983I)
T3 construct: expressed in transfected cells; host or cells: CHO cells, pcDNA plasmid
T3 sequence (Q6PQZ2 with tags, fused parts or gaps with the stated changes): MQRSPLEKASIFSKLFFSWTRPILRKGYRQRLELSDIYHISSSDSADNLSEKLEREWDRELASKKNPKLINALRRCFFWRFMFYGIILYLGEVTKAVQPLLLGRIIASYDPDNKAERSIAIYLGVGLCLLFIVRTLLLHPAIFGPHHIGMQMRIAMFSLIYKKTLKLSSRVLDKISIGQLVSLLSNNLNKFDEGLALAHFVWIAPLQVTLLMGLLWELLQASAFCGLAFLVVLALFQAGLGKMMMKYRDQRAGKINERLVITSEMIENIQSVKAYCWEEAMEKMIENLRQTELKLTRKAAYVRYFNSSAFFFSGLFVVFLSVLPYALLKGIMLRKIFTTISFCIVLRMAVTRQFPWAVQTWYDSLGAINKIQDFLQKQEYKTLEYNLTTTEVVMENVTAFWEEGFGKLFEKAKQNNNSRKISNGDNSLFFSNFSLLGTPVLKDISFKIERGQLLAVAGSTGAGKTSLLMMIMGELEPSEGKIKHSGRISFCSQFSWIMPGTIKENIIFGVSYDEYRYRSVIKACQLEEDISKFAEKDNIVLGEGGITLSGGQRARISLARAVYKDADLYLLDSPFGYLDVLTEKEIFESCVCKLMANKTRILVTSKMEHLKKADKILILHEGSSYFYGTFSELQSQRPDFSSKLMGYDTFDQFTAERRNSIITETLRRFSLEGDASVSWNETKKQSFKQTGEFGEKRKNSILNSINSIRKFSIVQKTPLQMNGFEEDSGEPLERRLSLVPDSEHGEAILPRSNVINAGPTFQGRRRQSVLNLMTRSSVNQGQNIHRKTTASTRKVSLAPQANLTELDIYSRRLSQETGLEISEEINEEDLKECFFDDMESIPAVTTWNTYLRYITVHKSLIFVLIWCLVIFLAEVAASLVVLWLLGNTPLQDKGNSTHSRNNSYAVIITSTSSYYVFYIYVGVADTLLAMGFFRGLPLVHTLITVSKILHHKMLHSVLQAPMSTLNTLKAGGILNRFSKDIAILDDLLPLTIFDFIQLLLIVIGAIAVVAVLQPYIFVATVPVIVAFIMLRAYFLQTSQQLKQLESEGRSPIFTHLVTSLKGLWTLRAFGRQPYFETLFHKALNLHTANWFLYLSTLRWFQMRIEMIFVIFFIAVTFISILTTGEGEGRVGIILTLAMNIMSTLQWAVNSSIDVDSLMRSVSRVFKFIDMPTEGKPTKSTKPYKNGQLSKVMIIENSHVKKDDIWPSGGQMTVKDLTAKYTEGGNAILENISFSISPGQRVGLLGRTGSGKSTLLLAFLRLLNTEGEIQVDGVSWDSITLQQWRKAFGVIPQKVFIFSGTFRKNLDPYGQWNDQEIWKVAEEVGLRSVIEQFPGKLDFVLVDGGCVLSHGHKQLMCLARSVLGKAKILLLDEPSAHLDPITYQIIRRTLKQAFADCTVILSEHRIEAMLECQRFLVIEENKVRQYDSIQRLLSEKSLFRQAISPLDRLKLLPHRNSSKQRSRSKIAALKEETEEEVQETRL
Description: as §1, §2, §3

[3] = molecular target: T4, p-hTM8-p-CFTR (pig CFTR, three TM8 amino acids replaced with human's) (Sus scrofa, UniProt Q6PQZ2, G926T/L930M/L932F)
T4 construct: expressed in transfected cells; host or cells: CHO cells, pcDNA plasmid
T4 sequence (Q6PQZ2 whole entry G926T/L930M/L932F): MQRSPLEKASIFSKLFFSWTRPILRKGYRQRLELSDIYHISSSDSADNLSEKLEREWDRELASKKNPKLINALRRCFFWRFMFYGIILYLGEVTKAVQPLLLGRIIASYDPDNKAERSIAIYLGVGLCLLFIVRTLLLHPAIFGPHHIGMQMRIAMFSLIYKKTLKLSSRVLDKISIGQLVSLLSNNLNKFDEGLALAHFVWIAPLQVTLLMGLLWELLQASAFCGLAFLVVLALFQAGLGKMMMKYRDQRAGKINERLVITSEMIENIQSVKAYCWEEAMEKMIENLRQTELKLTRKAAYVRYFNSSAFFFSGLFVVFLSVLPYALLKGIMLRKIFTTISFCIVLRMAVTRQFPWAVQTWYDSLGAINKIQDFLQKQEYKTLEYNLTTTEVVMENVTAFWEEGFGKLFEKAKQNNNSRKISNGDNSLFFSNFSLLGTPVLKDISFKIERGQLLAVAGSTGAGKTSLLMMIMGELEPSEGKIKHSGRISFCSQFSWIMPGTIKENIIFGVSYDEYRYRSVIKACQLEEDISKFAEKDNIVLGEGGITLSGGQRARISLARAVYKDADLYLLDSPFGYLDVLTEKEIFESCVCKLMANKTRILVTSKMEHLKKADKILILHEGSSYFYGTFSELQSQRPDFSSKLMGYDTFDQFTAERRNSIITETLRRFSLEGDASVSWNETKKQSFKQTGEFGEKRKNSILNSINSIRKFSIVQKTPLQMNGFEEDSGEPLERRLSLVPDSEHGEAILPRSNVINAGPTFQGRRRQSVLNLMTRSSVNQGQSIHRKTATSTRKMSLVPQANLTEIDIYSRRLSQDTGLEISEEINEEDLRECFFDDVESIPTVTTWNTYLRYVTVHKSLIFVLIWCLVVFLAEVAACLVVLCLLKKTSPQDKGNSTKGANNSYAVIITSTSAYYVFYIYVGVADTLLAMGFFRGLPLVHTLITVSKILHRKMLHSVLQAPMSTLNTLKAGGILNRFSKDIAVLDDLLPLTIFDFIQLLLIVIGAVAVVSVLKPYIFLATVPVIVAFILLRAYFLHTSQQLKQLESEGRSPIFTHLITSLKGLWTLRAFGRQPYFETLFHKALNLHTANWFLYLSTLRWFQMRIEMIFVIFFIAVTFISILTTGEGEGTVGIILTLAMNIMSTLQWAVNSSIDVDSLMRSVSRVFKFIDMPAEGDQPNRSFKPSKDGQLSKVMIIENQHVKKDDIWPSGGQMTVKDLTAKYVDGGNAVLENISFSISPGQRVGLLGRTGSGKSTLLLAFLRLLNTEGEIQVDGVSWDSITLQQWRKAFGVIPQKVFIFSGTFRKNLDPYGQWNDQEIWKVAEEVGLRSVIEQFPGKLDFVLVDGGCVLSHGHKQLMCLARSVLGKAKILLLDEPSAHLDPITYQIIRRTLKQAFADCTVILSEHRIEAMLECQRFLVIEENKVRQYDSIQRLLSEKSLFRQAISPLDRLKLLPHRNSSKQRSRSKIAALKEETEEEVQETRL
Description: as §1, §2, §3

[4] = 100 nM Inh-172, read-out: percent inhibition of current, Mean
[5] = 500 nM Inh-172, read-out: percent inhibition of current, Mean
[6] = 500 nM Inh-172, read-out: percent inhibition of current, individual cell
[7] = 1000 nM Inh-172, read-out: percent inhibition of current, Mean
[8] = 5000 nM Inh-172, read-out: percent inhibition of current, Mean
[9] = 5000 nM Inh-172, read-out: percent inhibition of current, individual cell
[10] = 10000 nM Inh-172, read-out: percent inhibition of current, Mean
[11] = 10000 nM Inh-172, read-out: percent inhibition of current, individual cell
[12] = read-out: percent inhibition of current, Mean
[13] = read-out: percent inhibition of current, individual cell
[14] = 100 nM Inh-172, read-out: percent inhibition of current, individual cell
[15] = 1000 nM Inh-172, read-out: percent inhibition of current, individual cell

`O=C(O)c1ccc(/C=C2\SC(=S)N(c3cccc(C(F)(F)F)c3)C2=O)cc1` [Inh-172, CFTRinh-172] was tested, and the “percent inhibition of current, individual cell” value (shortened to “percent inhibition of current”) (W1145A-CFTR; 100 nM Inh-172) was 2 and 8 and 0.5, the inhibition at 0.1 µM (W1145A-CFTR; [4]) was 3.5% and the “percent inhibition of current” value (W1145A-CFTR; 500 nM Inh-172) was 32 and 33. The inhibition at 0.5 µM (W1145A-CFTR; [5]) was 37.3%, the inhibition at 0.5 µM (W1145A-CFTR; [6]) was 42% and the “percent inhibition of current” value (W1145A-CFTR; 1000 nM Inh-172) was 60 and 69 and 44 and 52 and 49. For the same molecule, the inhibition at 1 µM (W1145A-CFTR; [7]) was 54.8%, the “percent inhibition of current” value (W1145A-CFTR; 5000 nM Inh-172) was 89 and 75 and 91 and 80 and the inhibition at 5 µM (W1145A-CFTR; [8]) was 85%. The inhibition at 5 µM (W1145A-CFTR; [9]) was 90%, the “percent inhibition of current” value (W1145A-CFTR; 10000 nM Inh-172) was 86 and 88 and the inhibition at 10 µM (W1145A-CFTR; [10]) was 89.8%. For the same molecule, the inhibition at 10 µM (W1145A-CFTR; [11]) was 95%, the “Hill Coefficient” value (W1145A-CFTR; W1145A) was 1.08 ± 0.12 and the IC50 (W1145A-CFTR; W1145A) was 880 ± 90 nM. The inhibition at 0.1 µM [1, 4] was 18.4%, the inhibition at 0.5 µM [1, 5] was 46.3% and the inhibition at 1 µM [1, 12] was 58.5%. It also gave an inhibition at 1 µM [1, 13] of 68%, an inhibition at 5 µM [1, 12] of 83.3% and an inhibition at 5 µM [1, 13] of 89%. The inhibition at 10 µM [1, 12] was 91%, the inhibition at 10 µM [1, 13] was 93% and the “Hill Coefficient” value ([1]; h-pTM8-h) was 0.80 ± 0.02. The IC50 ([1]; h-pTM8-h) was 640 ± 20 nM, the “percent inhibition of current” value ([2]; 50 nM Inh-172) was 48.0 and 39.0 and the inhibition at 0.05 µM ([2]; 50 nM Inh-172, read-out: percent inhibition of current, Mean) was 46.3%. The inhibition at 0.05 µM ([2]; 50 nM Inh-172, read-out: percent inhibition of current, individual cell) was 52%, the “percent inhibition of current” value ([2]; 100 nM Inh-172) was 60.0 and 64.0 and 67.0 and 62.0 and 55.0 and the inhibition at 0.1 µM [2, 4] was 63.6%. The inhibition at 0.1 µM [2, 14] was 75%, the “percent inhibition of current” value ([2]; 500 nM Inh-172) was 71.0 and 78.0 and 69.0 and 61.0 and the inhibition at 0.5 µM [2, 5] was 72%. For the same molecule, the inhibition at 0.5 µM [2, 6] was 81%, the “percent inhibition of current” value ([2]; 1000 nM Inh-172) was 84.0 and the inhibition at 1 µM [2, 7] was 79.8%. The inhibition at 1 µM [2, 15] was 85%, the “percent inhibition of current” value ([2]; 5000 nM Inh-172) was 97.0 and 95.0 and the inhibition at 5 µM [2, 8] was 96%. The inhibition at 5 µM [2, 9] was 96%, the “percent inhibition of current” value ([2]; 10000 nM Inh-172) was 98.0 and 100.0 and 90.0 and 93.0 and 91.0 and the inhibition at 10 µM [2, 10] was 95.6%. The inhibition at 10 µM [2, 11] was 99%, the “Hill Coefficient” value ([2]; p-hTMD2-p) was 0.54 ± 0.08 and the IC50 ([2]; p-hTMD2-p) was 60 ± 20 nM. The IC50 ([2]; pig CFTR with human TMD2, earlier manuscript version, peer review file) was 55 nM, the “percent inhibition of current” value ([3]; 25 nM Inh-172) was 0 and 3 and the inhibition at 0.025 µM ([3]; 25 nM Inh-172, read-out: percent inhibition of current, Mean) was 1%. The “percent inhibition of current” value ([3]; 100 nM Inh-172) was 18 and 20 and 14 and 17, the inhibition at 0.1 µM [3, 4] was 16.4% and the inhibition at 0.1 µM [3, 14] was 13%. For the same molecule, the “percent inhibition of current” value ([3]; 500 nM Inh-172) was 63 and 60 and 56 and 33 and 23, the inhibition at 0.5 µM [3, 5] was 47% and the “percent inhibition of current” value ([3]; 1000 nM Inh-172) was 53 and 44 and 63. The inhibition at 1 µM [3, 7] was 54%, the inhibition at 1 µM [3, 15] was 57% and the “percent inhibition of current” value ([3]; 10000 nM Inh-172) was 82 and 85. For the same molecule, the inhibition at 10 µM [3, 10] was 89%, the inhibition at 10 µM [3, 11] was 100% and the “Hill Coefficient” value ([3]; p-hTM8-p) was 0.84 ± 0.10. It also gave an IC50 ([3]; p-hTM8-p) of 720 ± 90 nM.
